# Test results as given in patent US20140161767A1, “FOLLICLE-STIMULATING HORMONE (FSH)/LYTIC DOMAIN FUSION CONSTRUCTS AND METHODS OF MAKING AND USING SAME” (BOARD OF SUPERVISORS OF LOUISIANA STATE UNIVERSITY AND …, priority 2012, published 2014).
# Legend:
# [1] = tested on: MDA-MB 435S cells; test: In vitro kinetics of cytotoxicity (MTT), MDA-MB-435S cells; assay type: cell-based, human; settings: all cell lines presenting functional LHRH receptors (MDA-MB-435, MCF-7, OVCAR-3)
# From the text: Membranes of non-cancerous cell lines are neutral and are resistant to cytolytic peptides, in contrast to cancer cell lines, which have a high phosphatidic acid content in their outer membrane.
# The breast cancer cell lines studied were MDA-MB-4355 (estrogen receptor alpha negative), MCF-7 and T47D (estrogen receptor alpha positive), ovarian cancer cell lines (OVCAR-3 and SKOV-3), prostate cancer (LNCaP), the non-malignant breast epithelial cell line MCF-10A and the mouse fibroblast cell line NIH:3T3.
# Cells were seeded into 96 well plates at a densitiy of 10,000 cells/well. […] Controls contained USP saline or 0.1% TritonX-100™ as reference for 0 and 100% cell death, respectively. […] Cell viability was assessed through formazan conversion assay (MTT assay, (CellTiter 96 Aqueous One, Promega # G3582). Formazan conversion was determined using a BioRad Benchmark Plus microplate spectrophotometer dual wavelengths at 490/630 nm at room temperature).
# Data were calculated as fraction of absorption in TritonX-100™ containing wells representing 100% cell death versus 0% cell death in saline containing wells. Cytotoxicity was determined as IC50 using GraphPad Prism version 5.01 for Windows, GraphPad Software, San Diego Calif. […] 4 wells of each individual set of two 96 well plates were compared and analyzed. Statistical analysis for significance was determined by a two-tailed Student's T-test.
# [2] = tested on: MDA-MB-435S xenograft; test: MDA-MB-435S xenograft, minimal effective dose, once weekly for 3 weeks; assay type: in vivo, mice
# Description: To determine the minimal effective dose necessary to reduce MDA-MB-435S xenograft weights in a single dose regimen, Nu/Nu female mice, outbred strain, age 5 weeks (Charles River), were injected (s.c.) into the interscapular region with a MDA-MB-435S (passage #249)/Matrigel suspension (2.4×10^6 cells/mouse) [Leuschner 2006].
# Each group consisted of 16 mice, which were injected once a week for 3 weeks. A group of 16 mice was sacrificed at the time of treatment start to serve as baseline. Saline injections served as control groups. During the entire study tumor volumes were recorded twice weekly.
# Treatment started on day 16 after tumor cell injection when the tumors were established and continued on days 23 and 30. All remaining mice were necropsied 37 days after tumor cell injection.
# Treatment response was determined by tumor weights and tumor weight change at necropsy compared to saline controls and untargeted Phor18 treatment. Primary tumors were collected, weighed and prepared for histological evaluation in formalin fixation with […]. Statistical evaluation of data sets were conducted in GraphPad Prizm 4 and significance calculated by Wilcoxon signed-rank test.
# [3] = tested on: OVCAR-3 xenograft; test: OVCAR-3 ovarian cancer xenograft; assay type: in vivo; settings: for Tumor weights at necropsy: Phor18-LHRH: 2 and 0.2 mg/kg vs saline and Phor18, p<0.05; for Tumor volume: during treatment
# Description: The xenograft model of the OVCAR-3 human ovarian cancer cell line that present functional LHRH receptors was used in this study. OVCAR-3 represents a slow growing xenograft model and secretes the tumor marker (cancer antigen 125, or CA125). It's secretion can be used as treatment response and is a measure of drug activity.
# In brief, Nu/Nu female mice, inbred strain, age 5 weeks (Harlan-Sprague Dawley) were injected subcutaneously with a NIH:OVCAR-3 cells/Matrigel suspension (4.6×10^6 cells/mouse). Treatment was started on day 33 after tumor cell injection when the tumors were established and continued on days 41 and 47. The doses for the 3 weekly injections were 0.02, 0.2 and 2 mg/kg body weight, given as a single bolus intravenous injection via lateral tail vein administered once a week for three weeks on days 33, 41 and 47. Necropsies were conducted on day 52. Data are presented as mean SEM. Arrows show dosing.
# A group of 9 tumor bearing mice was sacrificed on day 33 and served as baseline group. All mice were necropsied 51-52 days after tumor cell injection. Tumor volumes and bodyweights were recorded twice weekly during the study, as well as overall veterinarian examination of mice was conducted.
# Primary tumors, liver, kidney, pancreas, heart, lung, and spleen were collected, fixed in formalin and prepared for histological evaluation. Tumor weights were measured at necropsy, part of the tumors were frozen at −80° C. for LH/CG and LHRH receptor assay determination.
# As a biomarker for drug activity, CA125 was determined in serum, collected from each individual mouse at necropsy using a Enzyme Linked Immunoassay for quantitative determination of ovarian cancer antigen CA125 (Assay kit Genway, Biotech, Inc. San Diego, Calif., Catalog #40-052-115009, # BC-1013 according to the manufacturer).
# LHRH receptor levels were assessed from formalin fixed tumors. Quantitative immunoperoxidase image analysis was conducted with the Ventana Image Analysis System (VIAS) adjunctive computer assisted image analysis system functionally connected to an interactive microscope (Axio Imager). The quantitative analysis was conducted with the program for quantification of Her2/neu receptor that included morphometric and colorimetric analysis. Receptor status results were reported as percentage of cells showing positive staining of the LHRH receptors under the following criteria: 0 non-immunoreactive, 1+: 1-25% positive, 2+: 26 50% positive, 3+: 51-75% positive cells.
# [4] = tested on: PC-3 xenograft; test: PC-3 prostate cancer xenograft, Phor18-LHRH; assay type: in vivo, mice; settings: for Overall efficacy in PC-3 xenografts: mouse, in vivo
# Description: PC-3 xenografts untreated cause significant weight loss in mice.
# In brief, Nu/Nu male mice, outbred strain, age 6 weeks (Charles River) were injected subcutaneously with a PC-3 cells/Matrigel suspension (1×10^6 cells/mouse). Treatment was started on day 15 after tumor cell injection when the tumors were established and continued on days 22 and 29. The doses for the 3 weekly injections were 2, 0.2 and 0.02 mg/kg body weight, given as a bolus single intravenous injection via lateral tail vein.
# A group of 12 tumor bearing mice was sacrificed on day 15 and served as baseline group. All mice were necropsied 35 and 36 days after tumor cell injection. Tumor volumes and bodyweights were recorded twice weekly during the study, as well as overall veterinarian examination of mice was conducted.
# Primary tumors, liver, kidney, pancreas, heart, lung, and spleen were collected, fixed in formalin and prepared for histological evaluation. Tumor weights were measured at necropsy, part of the tumors were frozen at 80° C. for LH/CG and LHRH receptor assay determination.
Substance,Incubation time to maximum effect [1] [h],"Tumor volumes and tumor weights ([2]; mouse, in vivo)",Tumor weights at necropsy [3],Tumor volume ([3]; listed as CLIP71),Overall efficacy in PC-3 xenografts [4],Remarks / histological evaluation of tumors ([2]; hematoxylin/eosin),"Lowest dose with significant necrosis in tumors ([2]; mouse, in vivo) [mg/kg]","Lowest concentration with tumor volume reduction compared to baseline ([3]; 42 days after tumor cell injection, p<0.001) [mg/kg]",Tumor volume [3],Dose with greatest tumor regression compared to treatment start ([3]; p<0.03 vs baseline) [mg/kg],"Lowest concentration with tumor volume reduction compared to saline controls and CLIP71 ([4]; 22 days after tumor cell injection, p<0.001) [mg/kg]",Tumor weights compared to saline controls and CLIP-71 ([4]; all treated groups),Tumor volume ([4]; during treatment)
KFAKFAK KFAKFAK KFAK [Phor18],24,did not decrease tumor weights or destroy tumor tissue,not effective,no reduction,ineffective,,,,,,,,
KFAKFAKKFAKFAKKFAKQHWSYGLRPG [Phor18-LHRH],0.5 to 1,,Reduced tumor weights,,effective in arresting tumor growth,significant necrosis,0.0002,0.2,decreased,0.2,0.002,significantly reduced,decreased
